In a melting point compilation (Tetko et al.) one finds melting point data, which are given here for 115 compounds.

SMILES strings stand for the structures.

One may read the melting point as the temperature of the solid-liquid transition. For the compound `CC=C(c1ccccc1)c1ccccc1`, the melting point was 49 °C.
The same measure for `N#Cc1c(F)cc(Br)cc1F`: 81 °C.
`Cc1ccc(C2CC(c3ccc4ccccc4c3)=NN2c2ccccc2)cc1` (stereo not given) showed a melting point of 168 °C.
As for `Nc1n[nH]c2ccc(C(F)(F)F)cc12`, the figure is 135 °C; as for `[O-][P+](c1ccccc1)(c1ccccc1)C1C=C(c2ccccc2)OC(c2ccccc2)=C1`, 176 °C.
The compound `O=C(Nc1ccc(F)cc1)Nc1nnc(-c2ccc(Cl)cc2)o1` had a melting point of 268 to 270 °C.
The same measure for `Cc1nc2cc(C)c(C)cc2o1`: 93.5 to 94 °C.
The same measure for `CC(O)CCc1ccc(CCC(C)O)cc1` (stereo not given): 42 to 46 °C; for `Cc1cc2c(cc1C)C(=O)c1ccccc1C2=O`: 211 °C.
The compound `N#Cc1ccnc(N2CCCC2)c1` yielded a melting point of 79 to 80 °C.
The same measure for `O=C(O)COc1cccc(CBr)c1`: 126 °C; for `COc1nsnc1NS(=O)(=O)c1ccc(N)cc1`: 150 °C; for `CCCCCCCCCCCCCCc1ccccc1`: 16 °C.
Consider `O=C(N[C@H](Cc1ccccc1F)C(=O)O)OCC1c2ccccc2-c2ccccc21`, for which the melting point was found to be 145 °C.
As for `O=c1cc(C(F)(F)F)nc2scc(-c3ccc(Br)cc3)n12`, the figure is 171 °C; as for `O=C(O)c1ccccc1-n1cccn1`, 190 to 193 °C.
For the compound `CC(C)(C#N)OC1OC(CO)C(O)C(O)C1O` (stereo not given), the melting point amounted to 145 °C.
As for `CC1=NCCN1`, the figure is 107 °C; as for `O=Cc1ccccc1CN1CCOCC1`, 67 to 68 °C.
The same measure for `CSC(S)=Nc1ccc(Cl)cc1`: 112 to 113 °C; for `CC(C)(O)C#N`: -19 °C.
For the compound `CCOC(=O)c1cc2cc3c4c(c2oc1=O)CCCN4CCC3`, the melting point was in the range of 140 to 144 °C.
On to `CCn1nc(C)c(Br)c1C(=O)O`, for which the melting point is 158 to 162 °C.
As for `O=S(=O)(Cl)c1c(F)c(Br)cc(F)c1Br`, the figure is 69 °C; as for `BrC(Br)C(Br)Br`, 0 °C; as for `COC(=O)c1cc(OC)c(O)c(OC)c1`, 106 °C.
As for `Cc1ccc(CC#N)cc1`, the figure is 18 °C.
Take `c1c2c(cc3c1CCCC3)CCCC2`: the melting point was determined as 78 °C.
With `ClCc1cc2c(cc1Cl)OCO2`, the melting point was found to be 64 °C.
In turn, `Nc1ccc(N2CCOCC2)cc1` displayed a melting point of 130 to 131 °C.
The same measure for `O=C(CBr)c1ccc(F)cc1`: 47 °C; for `CCCCC(CC)CCl` (stereo not given): -70 °C; for `C/C=C/C1Nn2c(nnc2-c2ccc(OC)cc2)S1` (stereo not given): 80 to 82 °C.
As for `Nn1nnc2ccccc21`, the figure is 81 to 85 °C; as for `Cc1cc(=O)n2nc(C(F)(F)F)nc2[nH]1`, 214 °C.
Compound `CC(C)CCC[C@@H](C)[C@H]1CC[C@H]2[C@@H]3CC[C@H]4C[C@H](O)CC[C@]4(C)[C@H]3CC[C@]12C` had a melting point of 186 °C.
As for `CC1CCC2C(C)C(=O)OCC12` (stereo not given), the figure is 60.5 °C; as for `CCNc1cc(NC(C)=O)ccc1C`, 107 to 109 °C.
As for `CC(=O)Nc1cccc(NCC(=O)c2ccccc2)c1`, the figure is 171 °C; as for `OCC1OC(Oc2ccc(O)cc2)C(O)C(O)C1O` (stereo not given), 200 °C; as for `O=C1C=C(Cl)C(=O)O1`, 33 °C.
The same measure for `NC(=O)C(N)c1ccccc1` (stereo not given): 125 to 129 °C; for `CCCCC=CC(=O)O`: -19 °C; for `Cc1ccccc1NC(=O)C(C(F)(F)F)C(F)(F)F`: 193 to 195 °C.
For the compound `Cn1c(=O)c(C2=NNC(=O)C2=Cc2ccc3c(c2)OCO3)c(O)c2ccccc21`, the melting point was 265 °C.
Turning to `CCOC(=O)CSc1nc(C)n[nH]1`, the melting point is 99 to 101 °C.
`C/C=C(\C)c1ccccc1` came in with a melting point of -23.5 °C.
As for `O=c1cc(-c2ccccc2)cc(-c2ccccc2)o1`, the figure is 137 °C; as for `OCC1(CO)CC=CCC1`, 88.5 °C.
The same measure for `O=C1C=C(N2CC2)C(=O)C(N2CC2)=C1N1CC1`: 163 °C; for `CC(C)c1cc(C(C)C)c(S(=O)(=O)n2cncn2)c(C(C)C)c1`: 111 °C; for `C=CC(=O)ON1C(=O)CCC1=O`: 69 °C.
The same measure for `Cc1nc(-c2ccc(Cl)cc2)sc1C(=O)CBr`: 120 to 121 °C; for `CCOC(=O)CC(C(C)=O)C(=O)OCC` (stereo not given): -8 °C; for `CSc1nc(N)c2ccccc2n1`: 233 to 235 °C.
Compound `NC(=S)c1ncc(C(F)(F)F)cc1N1CCCC1` gave a melting point of 176 to 180 °C.
As for `O=C1/C(=C\c2ccc(Cl)cc2)SC(=S)N1CN1CCCCC1`, the figure is 122 °C; as for `O=C(O)c1ccc(-n2ccnc2)cc1`, 309 to 311 °C; as for `CSCCC(N)C(=O)O` (stereo not given), 281 °C.
As for `O=C1NC(=O)C(=Cc2ccc(-c3cccc([N+](=O)[O-])c3)o2)C(=O)N1`, the figure is 280 °C.
The same measure for `Cc1c(C)c2c(c3c1CC3)CC2`: 105 to 116 °C; for `O=Cc1c[nH]c2cc(Br)ccc12`: 202 to 203 °C.
`N#CC(C(N)=O)=C(SCc1ccccc1)SCc1ccccc1` gave a melting point of 104 °C.
Compound `O=Cc1cccn1S(=O)(=O)c1ccccc1[N+](=O)[O-]` had a melting point of 139 to 141 °C.
As for `C=CCNC(=O)C(O)C(O)C(=O)NCC=C` (stereo not given), the figure is 182 to 186 °C; as for `Cn1cc(C=O)c(N)n1`, 133 to 134 °C; as for `CSC(=NS(=O)(=O)c1ccc(Br)cc1)SC`, 100 to 105 °C.
The same measure for `Cc1oc(-c2ccccc2)nc1C(=O)O`: 182 to 183 °C.
The same measure for `C=C(Br)CC(NC(=O)OCC1c2ccccc2-c2ccccc21)C(=O)O` (stereo not given): 120 °C.
Turning to `CCCCCCCCCCCCCCCCOC(=O)C(C)O` (stereo not given), the melting point turned out to be 41 °C.
The same measure for `CC(=O)N1C(C(=O)O)Cc2c([nH]c3ccccc23)C1(C)C` (stereo not given): 160 °C; for `CCOc1ccc(C(=O)OC)cc1`: 36 °C.
Consider `C#CCN1C(=O)CN=C(c2ccccc2)c2cc(Cl)ccc21`, for which the melting point worked out at 141 °C.
Compound `CS(=O)(=O)Nc1ccccc1` showed a melting point of 93 to 97 °C.
Compound `c1ccc2sc(SN3CCOCC3)nc2c1` yielded a melting point of 85 °C.
As for `CCC1(CC)OC(=O)C2CCC1(C)OC2(C)C` (stereo not given), the figure is 90 °C; as for `CCCC/C=C/CCCC`, -73 °C; as for `CC(Oc1ccc(Oc2ccc(Cl)cc2Cl)cc1)C(=O)O` (stereo not given), 120 °C.
The same measure for `CCCCCCCCCCCCCCCCCC(=O)OCCC(C)C`: 25.5 °C; for `O=C(O)/C=C/c1ccc(C(F)(F)F)cc1`: 230 to 234 °C; for `C=C1C(C(=O)O)C1C(=O)O` (stereo not given): 197 to 201 °C.
As for `Cc1ccc(I)c([N+](=O)[O-])c1`, the melting point was in the range of 52 to 54 °C.
The same measure for `CCCCCCCCBr`: -55 °C; for `CC12C(=O)OC(=O)C1(C)C1CCC2O1` (stereo not given): 218 °C.
The same measure for `Cc1nn(-c2ccccc2)c(N)c1C#N`: 129 to 131 °C.
`Nc1ccc(Br)cc1C(=O)O` showed a melting point of 220 °C.
As for `Cc1ccc(C(=O)O)c(N)c1`, the figure is 160 to 161 °C; as for `FC(Cl)CCl` (stereo not given), -60 °C; as for `CC(=O)OC1CC2C(C)C(=O)C3(C(O)CC4C5(C)CCCC4(C(O)OC5)C13)C2O` (stereo not given), 220 °C.
As for `CC#CCOS(=O)(=O)c1ccc(C)cc1`, the melting point stood at 47.5 °C.
The same measure for `CCNC(=S)Nc1ccccc1`: 102 to 104 °C.
Consider `ClC=CCl`, for which the melting point was -80 °C.
In turn, `Cc1ccc(S(=O)(=O)OCCCOS(=O)(=O)c2ccc(C)cc2)cc1` had a melting point of 90 to 93 °C.
As for `CC(C(=O)O)c1ccc(C(=O)c2ccccc2)s1` (stereo not given), the figure is 96 °C; as for `CCc1cccc([N+](=O)[O-])c1`, -37.9 °C; as for `O=C1CCc2cc(Cl)ccc21`, 94 °C.
As for `NNC(=O)c1ccccc1Oc1ccccc1`, the figure is 99 to 103 °C; as for `CCCC(CC)C1(CC)C(=O)NC(=O)NC1=O` (stereo not given), 122 °C.
The same measure for `CN(C)c1ccc(C(O)c2ccc(N(C)C)cc2)cc1`: 101 °C.
Regarding `FC(F)(F)c1ccc2c(Cl)ccnc2c1`, the melting point fell in the range of 69 to 73 °C.
On to `CCCCCCCCC(N)=O`, for which the melting point was 99.5 °C.
As for `CC(=O)OC1CC(=O)OC1=O` (stereo not given), the figure is 55 °C; as for `Clc1ccc(Cc2c(N=Cc3ccc4c(c3)OCO4)n[nH]c2N=Cc2ccc3c(c2)OCO3)cc1`, 206 to 208 °C; as for `NC(C(=O)O)C(O)c1ccccc1` (racemic), 186 °C.
The same measure for `Cc1ccccc1C(=O)Cc1ccccc1C(=O)OC(C)(C)C`: 30 to 36 °C; for `CC(=NNc1nc(C)cc(C)n1)c1ccccc1C`: 176 °C; for `Cn1c(=O)c(C2=NNC(=O)C2=C2c3ccccc3-c3ccccc32)c(O)c2ccccc21`: 295 °C.
As for `CCC1C(=O)CCC1=O`, the figure is 172 to 175 °C.
`CC1(C)OC2OC(CO)C3OC(C)(C)OC3C2O1` (stereo not given) had a melting point of 120 to 122 °C.
As for `CCC(C)c1cc([N+](=O)[O-])cc([N+](=O)[O-])c1O` (stereo not given), the figure is 40 °C; as for `Oc1ccc(Cl)c(Cl)c1Cl`, 83.5 °C.
The same measure for `O=C(O)Cc1cccc(Cl)c1Cl`: 134 °C; for `CCOP(=O)(O)C(N)=O`: 174 °C; for `NC(=S)Nc1ccc(O)cc1`: 214 °C.
The compound `OCCN(CCO)c1nc(N2CCCCC2)c2nc(N(CCO)CCO)nc(N3CCCCC3)c2n1` came in with a melting point of 163 °C.
